# Assay results published in US11020364B2, “Palmitoleic acid for use in inhibiting the attachment of sea lice to fish” (INSTITUT DE RECHERCHE EN SEMIOCHIMIE ET ETHOLOGIE APPLIQUEE, priority 2014, dated 2021).
# Values joined by “and” are separate entries in the source; they are usually repeats but may differ in a detail not shown here. Equal values may be shown once.
# Experiments:
# [1] = system: Lepeophtheirus salmonis copepodids; experiment: Infestation test with isomer in Atlantic salmon (Example 7); format: in vivo
# Procedure: The aim of this example was to test the efficacy of an isomer of Sea Lice Copepodids Attachment Inhibiting Semiochemical (SCAIS) as an inhibitor of the infestation behavior of Lepoephtheirus salmonis copepodids in Atlantic salmon (Salmon salar). The test was realized using 4 rounds of 4 fish, eight of which were treated with trans-9-hexadecenoic acid and the other eight used as a control. For each round 4 fish were tested; i.e., 2 treated fish and 2 controls. To be included in the study the smolts had to have a body weight between 70 g and 150 g and the copepodits had to be able to swim actively. If the smolts had disease, loss of scales, fin damage, cataracts and/or swam abnormally they were not used in the study. If the copepodits were immobile after stimulation, they were rejected from the study. For each round 4 fish are caught and introduced into four 2-liter flat beakers supplied with 1.75 liters of seawater. The treated fish had 6 ppm of trans-9-hexadecenoic acid placed in their seawater, while in the control only seawater was used. 0.52 ml of the treatment or control were directly injected into 1.75 liters of seawater. The 4 fish were bathed in this solution for 10 minutes. The fish were then transferred to another 3.5 liter beaker supplied with 3.5 liters of seawater treated either with 3 ppm of trans-9-hexadecenoic acid or a control of simply seawater. 0.52 ml of the treatment of control were directly injected into 3.5 liters of seawater. The flat beakers were equipped with a valve such that 0.875 liters were emptied from the flat beaker. When the fish were introduced into the beakers, the valves were turned on. Ten minutes after the valves were turned on, the beakers were supplied with either 0.875 liters of the treatment of trans-9-hexadecenoic acid or 0.875 liters of the control of seawater. Ten minutes thereafter (20 minutes after the introduction of the fish into the beakers), the valves were turned off and 60 copepodits per fish were injected into each flat beaker. Five minutes later (25 minutes after introduction of the fish into the beakers), the valves were turned on. Ten minutes later (35 minutes after introduction of the fish into the beakers) each beaker was supplied with either 0.875 liters of trans-9-hexadecenoic acid or 0.875 liters of the control of seawater. Ten minutes later (45 minutes after introduction of the fish into the beakers) each beaker was supplied with either 0.875 liters of trans-9-hexadecenoic acid or 0.875 liters of the control of seawater. […] The content of plastic bag was then emptied above a filter and the number of copepodits was then counted on each filter using a magnifying glass. […] Data was analyzed using 9.4 SAS software (2002-2012 by SAS Institute Inc., Cary, N.C., U.S.A.). […]
# copepodits = experiment: Infestation test of smolts with copepodits (Examples 4 to 6); format: in vivo, Lepeophtheirus salmonis
# Procedure: This test exposed young salmons (smolts weighting almost 70 grams) to a high density group of copepodits during 45 minutes in a testing device, which consisted of four 23 cm diameter tanks, with an outflow. […] Light can modify the behavior of the copepodits which have phototropism. Each tank received a smolt for 45 min (FIG. 6). The copepodits were first fished out of their rearing tank and counted on a stereomicroscope. Four infesting doses of copepodits, containing 60 copepodits each, were prepared for each run of the test. The smolts were placed in a tank containing the treatment solution (or the placebo), which concentration in active substance was 6 ppm. This bath lasted for 10 minutes. Then the smolts were placed in a tank where they were kept in 3 ppm of the same treatment (product or placebo) used in the previous bath to begin the testing. The purpose of this process was to prevent any dramatic decrease in the concentration of the active product on their skin. During the first 10 minutes, the outflow was open and the tent was closed. At that moment each tank was refilled to reach the initial volume of oxygenated liquid (refilled with the same solution, product or placebo). The outflow was then closed for 5 minutes and the infesting dose was introduced in the tank. Then the outflow was opened and stayed opened for 30 minutes with a refill every 10 minutes (without opening the tent). After 45 minutes of exposure to the copepodits, the smolts were euthanized by administration of a toxic dose of anaesthetic agent Benzoake, at a concentration of 10 times the normal dose of 30 to 40 mg/l. The dead fish were placed in a plastic bag in which they were rubbed and rinsed with sea water. The skin of the fish was rubbed with a metallic spoon, to remove all the possible copepodits attached on it, as shown in FIG. 7. Each fish was washed thus detaching all of the copepodits and shells from the fish skin. The collected liquid from the washing was filtered to count the parasites. The copepodits were counted on the filter to obtain the number of copepodites on the outer body of the fish. The gills were then dissected to count the number of copepodits on the gills. The first phase of the test compared the number of copepodits on the body and on the gills, between replicas of the test. The purpose of this phase was to validate the test and measure its standard deviation. The second phase of the test compared the number of copepodits (abbreviated cops in the Tables below) on the body and on the gills, between treated smolts and reference smolts, as a control, which were just bathed in seawater plus ethyl alcohol for the five solutions. The same test as in Example 4 was repeated using palmitoleic acid. […] The same experiment was undertaken as described in Example 4.
# [2] = system: Lepeophtheirus salmonis copepodids; experiment: Infestation test with water dispersible tablets (Example 9); format: in vivo
# Source text: The purpose of this example was to assess the efficacy of the sea lice copepodits attachment inhibiting semiochemical (SCAIS), continuously released by water dispersible tablets, on the infestation behaviour of Lepeophtheirus salmonis copepodids in Atlantic salmon smolts (Salmo salar).
# 72 Atlantic salmon (Salmo salar) in the smolt stage having a weight around 90 g and of the origin SALMAR® (Daugstad 6392 Vikebukt, Norway) were used in this study. 2,400 copepodits used were from the species Lepeophtheirus salmonis origin Ilab® (Bergen, Norway).
# Infestation tests were measured at 1 hour, 24 hours, 72 hours and 120 hours after application of the treatment. Blood tests were undertaken at 0 hours, 1 hour, 24 hours, 72 hours and 120 hours after treatment.
# […] were used and the study was conducted in two parallel groups of Atlantic salmon smolts, one group was treated with the sea lice copepodits attachment inhibiting semiochemical tablets of cis-9-hexdecenoic acid, which were placed in a string bag half way down where the water resides in the rearing tank and the other group was the control using only ethyl alcohol.
# The infestation test, carried out at 1 hour, 24 hours, 72 hours and 120 hours after application of the treatment was performed in the following manner. […]
# [3] = 8 treated fish, 6 ppm then 3 ppm
# [4] = mean of replicas, 6 ppm bath then 3 ppm, 60 copepodits, 45 minutes
SMILES,"Nb copepodits, Mean [1, 3]","Nb copepodits, Median [1, 3]","Number of copepodits ([1]; single fish, 6 ppm bath 10 minutes then 3 ppm, 60 copepodits per fish)",effect on number of copepodits attached in Atlantic salmons (in words) ([1]; vs seawater control),"Number of copepodits attached in the gills, Mean (copepodits; Example 6, Treated salmons)","Number of copepodits attached in the gills, Median (copepodits; Example 6, Treated salmons)","Number of copepodits attached to body, Mean (copepodits; Example 6, Treated salmons)","Number of copepodits attached to body, Median (copepodits; Example 6, Treated salmons)","reduction in number of copepodits attached on the body of the salmon (in words) (copepodits; Example 6, vs control salmons and control cods)","effect on attachment of copepodits on smolts (in words) (copepodits; Examples 4 and 5, vs reference smolts in seawater plus ethyl alcohol)","Cop on body, mean (copepodits; [4])","Cop on gills, mean (copepodits; [4])","Cop on body (copepodits; single replica (smolt), 6 ppm bath 10 minutes then 3 ppm, 60 copepodits, 45 minutes)","mean number of copepodits attached ([2]; treatment group, water dispersible tablets in rearing tank, 60 copepodits per fish, preliminary analysis)","protection in infestation tests (in words) ([2]; water dispersible tablets, 60 copepodits per fish in closed 3.5 liter tank)"
"CCCCCC/C=C/CCCCCCCC(=O)O [SCAIS^iso, trans-9-hexadecenoic acid]",10,9,8,significant effect on the number of copepodits attached,,,,,,,,,,,
"CCCCCC/C=C\CCCCCCCC(=O)O [palmitoleic acid, cis-9-hexadecenoic acid]",,,,,2.375,2.5,6.25,6,highly significant reduction,important reduction of the infestation,8.0,2.8,6 and 11 and 7 and 8,10.6,significant protection
